Measured values: patent US12527774B2, “Estrogen-related receptor alpha modulators” (LEAD PHARMA HOLDING B.V., priority 2019, dated 2026)

How the values were obtained:
[1] = target: full length ERRα (Homo sapiens (Human), UniProt P11474); experiment: Full Length ERRα Reporter Gene Assay; format: cell-based; conditions: SK-BR-3 cells, ERRα-RE luciferase reporter, overnight incubation; read-out: mean pIC50 (converted)
Text: Full Length ERRα Reporter Gene Assay
A method was established to quantitatively screen the potency of compounds with inverse agonistic activity on the nuclear receptor ERRα of the human species. The assay allows intra-cellular screening of ERRα inverse agonists in SK-BR-3 cells using an over-expression construct coding full length ERRα and a reporter construct containing an ERRα Response Element (RE) and a luciferase gene for read out. The activity is expressed in log IC50 values and can be used to determine SAR of compound families or to de-select compounds.
In this assay, reporter cells are obtained by transient co-transfection of two constructs in SK-BR-3 cells using standard transfection techniques. The first construct contains a response element of the nuclear receptor ERRα (Plasmid pLP2175, Reporter construct ERRα-RE/luc2P, cloned variant of ERRα_v2_synthRE, Switchgear Genomics, Catalog Number S900089). This sequence drives the transcription of the luciferase reporter gene in response to binding of an ERRα protein encoded by the second construct (Plasmid pLP2124: full length ERRα expression construct using pcDNA3.1/Hygro(+) as background, Invitrogen Catalog Number V87020).
The day after transfection, cells were plated into 96 well plates, test compound was added and the plates were incubated overnight. Subsequently, the firefly luciferase activity was quantified using luciferase detection reagent and luminescence readout.
Detailed Assay Description
Transfection is performed on pre-seeded SK-BR-3 cells in a T175 flask. One transfected T175 flask is sufficient for seeding 3 to 4 MW96 plates the next day, depending on the confluency of the transfected cells.
Two different media are used in this protocol for cell treatment: 1) Culture medium, i.e. McCoy's 5a with phenol red (BioWhittaker Supplier Number 12-688F), 10% FBS and 1× Penstrep.; and, 2) Assay medium, i.e. McCoy's 5a Medium phenol red free (HyClone Product Code SH30270.01) with 2% Charcoal Stripped FBS and 1× Penstrep. Compound dilutions are prepared in assay medium.
Cells are seeded at least 2 days in advance to allow the cells to adhere well to flask before transfection. Cells should be 50-80% confluent at the day of transfection.
SKBR3 cells were transfected with the transcriptional reporter construct pLP2175 and the ERRα expression construct pLP2124 (as described above).
68 μL of Lipofectamine LTX transfection reagent (Invitrogen Catalog Number 15338-100) was added dropwise to 8.9 ml Opti-MEM I Reduced Serum Medium (Gibco Catalog Number 51985-026) and incubated at room temperature for 5 to 20 minutes. 8.9 ml of this reagent mixture was added to 22 μg pLP2175+22 μg pLP2124 (ratio 1:1 and total volume 10 ml), and incubated at room temperature for 25 minutes.
10 minutes before adding the transfection mix to SKBR3 cells in a T175 flask, the culture medium was refreshed with 20 mL culture medium. Subsequently, the 10 mL DNA-Opti-MEM-Lipofectamine mixture was gently added to the cells, followed by overnight (16-24 hours) incubation at 37° C. and 5% CO2.
To harvest SKBR3 cells from a T175 flask, first the medium was removed. Subsequently, cells were washed with Phosphate Buffered Saline (PBS) (Lonza), after which the PBS was removed. To dissociate the cells, 2 ml of TrypLE Express (Invitrogen) was added to the flask, followed by incubation at 37° C. for 5 minutes. The flask was tapped until cells were detached from the bottom. Cells were collected in 8 mL of culture medium (McCoy's 5α, 10% FBS, penstrep), to achieve a single cell suspension. After cell count, cells were spun down for 5 minutes at 300 g. Next cell pellets were re-suspended to 25000 cells/80 μl assay medium (McCoy's 5a phenol red free, 2% charcoal stripped FBS, penstrep).
For compound screening, the cells were harvested (as described above). 80 μL of cell suspension (25,000 cells) was plated per well into a white, flat bottom, tissue culture treated, 96 well screening plates (Greiner). […]

[2] = tested on: B16F10 melanoma; experiment: B16F10 Melanoma Syngeneic Mouse Model; format: in vivo; conditions: 30 mpk p.o., q.d., C57BL/6 mice; for Tumor Growth Inhibition (%): Day 13
Procedure: B16F10 Melanoma Syngeneic Mouse Model
Examples inhibitors 100, 191, 192, 194 and 196 were tested for their ability to inhibit tumor growth in a B16F10 melanoma syngeneic mouse model.
Cell line and tumor model: B16F10 melanoma cell line derived allograft model in C57BL/6 mice.
Mouse B16F10 melanoma cells were sourced from American Type Culture Collection (ATCC), USA. Cells were grown in DMEM (Invitrogen, Catalogue No. 31600-034) supplemented with 10% FBS (Invitrogen, Catalogue No. 10438-026), and 1% penicillin streptomycin (Thermo Fisher Scientific, Catalogue No. 15140-122). To establish allografts, the cells were harvested by trypsinization when they reach around 70 to 80% confluence and 0.1 million B16F10 cells were suspended in 50 μl of serum free medium and mixed at 1:1 ratio with matrigel before implanting subcutaneously into the dorsal right flank of mice using a 1 mL BD syringe attached to a 24-gauge needle.
B16F10 tumor grafts were measured after 5 days of cell inoculation once they became palpable. When the average tumor volume reached around 58 mm^3, animals were dosed after randomization into different treatment groups keeping tumor volume and number of animals in such a way so that the average tumor volume of each group remained same across the groups. Dosing was performed on a per kilogram weight basis, by mouth (per os, p.o.) once a day (quaque die, q.d).
Tumor dimensions—length (I) and breadth (b)—were measured by caliper on the day of animal randomization based on tumor volume (Day 1) and thrice weekly thereafter until study termination. Tumor volumes were calculated using the formula b^2*I*0.52 where l=length, b=breadth (Dusan Djokovic et al., BMC Cancer, 2010, 10:641). Tumor growth inhibition was calculated after normalizing the tumor volume on a given day to that on Day 1.
Test items administration was started when tumor volume reached an average of 58 mm^3.
Administration of test items was carried out until Day 14 and measurement of tumor volume was carried out until Day 13 for computing percent tumor growth inhibition (TGI).

[3] = target: ERRα ligand binding domain (ERRα-LBD) (Homo sapiens (Human), UniProt P11474); experiment: ERRα AlphaScreen Assay; format: biochemical; conditions: disruption of binding of ERRα-LBD protein to biotin-PGC1α-3 co-activator peptide; for IC50: read-out: mean pIC50 (converted)
ERRα ligand binding domain (ERRα-LBD), sequence (P11474 193-421): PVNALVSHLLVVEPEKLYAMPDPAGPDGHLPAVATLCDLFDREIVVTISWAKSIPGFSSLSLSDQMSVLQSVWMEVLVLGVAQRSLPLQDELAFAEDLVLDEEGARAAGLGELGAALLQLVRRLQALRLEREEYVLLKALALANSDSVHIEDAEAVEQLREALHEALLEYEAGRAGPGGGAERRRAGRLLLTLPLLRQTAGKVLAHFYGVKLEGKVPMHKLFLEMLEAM
In short: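 Disruption of co-activator binding read by AlphaScreen: compounds in triplicate, 1% DMSO, Tris pH 7.5 buffer, room temperature. Bacterially expressed 6His-SUMO-ERRα-LBD at 0.81 nM with beads for 1 h, then 15 nM biotinylated PGC1α peptide for 2 h. IC50 from four-parameter fits, averaged as pIC50.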

full length ERRα, sequence (P11474 whole entry): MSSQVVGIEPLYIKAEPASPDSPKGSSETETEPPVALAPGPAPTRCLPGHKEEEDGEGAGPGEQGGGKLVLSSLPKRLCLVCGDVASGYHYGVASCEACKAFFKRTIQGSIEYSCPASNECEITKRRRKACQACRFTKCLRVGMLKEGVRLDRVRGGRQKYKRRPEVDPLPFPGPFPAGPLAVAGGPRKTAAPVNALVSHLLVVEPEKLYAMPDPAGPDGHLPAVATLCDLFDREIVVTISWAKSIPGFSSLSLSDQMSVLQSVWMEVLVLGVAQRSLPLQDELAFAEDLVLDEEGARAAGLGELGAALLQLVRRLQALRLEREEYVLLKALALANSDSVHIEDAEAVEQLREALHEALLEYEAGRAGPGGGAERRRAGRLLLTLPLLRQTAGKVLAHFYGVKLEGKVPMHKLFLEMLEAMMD

SMILES	IC50 [1]	Tumor Volume (mm^3) Day 13 [2]	Tumor Growth Inhibition (%) [2]	mean pIC50 [3]	IC50 [3]
COc1cc(C2CC(=O)Nc3n[nH]cc32)ccc1COc1ccc(C(F)F)cc1C(F)(F)F (single isomer, unassigned; (-)) [Example 196, (−)-4-(4-{[4-(difluoromethyl)-2-(trifluoromethyl)phenoxy]methyl}-3-methoxyphenyl)-2H,4H,5H,6H,7H-pyrazolo[3,4-b]pyridin-6-one]	≤ 316 nM	755 ± 135 mm^3	60%	–	–
COc1cc(C2CC(=O)Nc3n[nH]cc32)ccc1COc1ccc(Cl)cc1C(F)(F)F (single isomer, unassigned; (-)) [Example 194, (−)-4-(4-{[4-chloro-2-(trifluoromethyl)phenoxy]methyl}-3-methoxyphenyl)-2H,4H,5H,6H,7H-pyrazolo[3,4-b]pyridin-6-one]	≤ 316 nM	870 ± 152 mm^3	53%	≥ 8	–
COc1cc(C2CC(=O)Nc3n[nH]cc32)ccc1OCc1ccc(NC(=O)CN)cc1C(F)(F)F (stereo not drawn) [Example 140, 2-amino-N-{4-[(2-methoxy-4-{6-oxo-2H,4H,5H,6H, 7H-pyrazolo[3,4-b]pyridin-4-yl}phenoxy)methyl]-3-(trifluoromethyl)phenyl}acetamide]	≤ 316 nM	–	–	–	100 to 1000 nM
COc1cc(C2CC(=O)Nc3n[nH]cc32)ccc1OCc1ccc(C2CC2)cc1C(F)(F)F (stereo not drawn) [Example 145, 4-(4-{[4-cyclopropyl-2-(trifluoromethyl)phenyl]methoxy}-3-methoxyphenyl)-2H,4H,5H,6H, 7H-pyrazolo[3,4-b]pyridin-6-one]	≤ 316 nM	–	–	≥ 8	–
COc1cc(C2CC(=O)Nc3n[nH]cc32)ccc1OCc1cccc(OC)c1C(F)(F)F (stereo not drawn) [Example 36, 4-(3-methoxy-4-{[3-methoxy-2-(trifluoromethyl)phenyl]methoxy}phenyl)-2H,4H,5H,6H,7H-pyrazolo[3,4-b]pyridin-6-one]	≤ 316 nM	–	–	≥ 8	–
COc1cc(-c2cc(=O)[nH]c3n[nH]cc23)ccc1OCc1ccc(CCO)cc1C(F)(F)F [Example 176, 4-(4-{[4-(2-hydroxyethyl)-2-(trifluoromethyl)phenyl]methoxy}-3-methoxyphenyl)-2H, 6H, 7H-pyrazolo[3,4-b]pyridin-6-one]	≤ 316 nM	–	–	≥ 8	–
C=CCc1ccc(COc2ccc(C3CC(=O)Nc4n[nH]cc43)cc2OC)c(C(F)(F)F)c1 (stereo not drawn) [Example 142, 4-(3-methoxy-4-{[4-(prop-2-en-1-yl)-2-(trifluoromethyl)phenyl]methoxy}phenyl)-2H,4H,5H,6H,7H-pyrazolo[3,4-b]pyridin-6-one]	≤ 316 nM	–	–	≥ 8	–
COc1cc(C2CC(=O)Nc3n[nH]cc32)ccc1OCc1ccc(Cl)cc1C(F)(F)F (stereo not drawn) [Example 15, 4-(4-{[4-chloro-2-(trifluoromethyl)phenyl]methoxy}-3-methoxyphenyl)-2H,4H,5H,6H, 7H-pyrazolo[3,4-b]pyridin-6-one]	≤ 316 nM	–	–	≥ 8	–
COc1cc(-c2cc(=O)[nH]c3n[nH]cc23)ccc1OCc1ccc(F)cc1C(F)(F)F [Example 179, 4-(4-{[4-fluoro-2-(trifluoromethyl)phenyl]methoxy}-3-methoxyphenyl)-2H,6H, 7H-pyrazolo[3,4-b]pyridin-6-one]	≤ 316 nM	–	–	≥ 8	–
CCc1ccc(COc2ccc(C3CC(=O)Nc4n[nH]cc43)cc2OC)c(C(F)(F)F)c1 (stereo not drawn) [Example 144, 4-(4-{[4-ethyl-2-(trifluoromethyl)phenyl]methoxy}-3-methoxyphenyl)-2H,4H,5H,6H, 7H-pyrazolo[3,4-b]pyridin-6-one]	≤ 316 nM	–	–	≥ 8	–
COc1cc(C2CC(=O)Nc3n[nH]cc32)ccc1OCc1ccccc1C(C)(C)C (stereo not drawn) [Example 40, 4-{4-[(2-tert-butylphenyl)methoxy]-3-methoxyphenyl}-2H,4H,5H,6H,7H-pyrazolo[3,4-b]pyridin-6-one]	≤ 316 nM	–	–	≥ 8	–
COc1cc(C2CC(=O)Nc3[nH]cnc32)ccc1OCc1ccccc1C(F)(F)F (stereo not drawn) [Example 89, 7-(3-methoxy-4-{[2-(trifluoromethyl)phenyl]methoxy}phenyl)-3H,4H,5H,6H, 7H-imidazo[4,5-b]pyridin-5-one]	≤ 316 nM	–	–	≥ 8	–
COc1cc(C2CC(=O)Nc3n[nH]cc32)ccc1OCc1ccc(Br)cc1C(F)(F)F (stereo not drawn) [Example 33, 4-(4-{[4-bromo-2-(trifluoromethyl)phenyl]methoxy}-3-methoxyphenyl)-2H,4H,5H,6H,7H-pyrazolo[3,4-b]pyridin-6-one]	≤ 316 nM	–	–	≥ 8	–
COc1cc(C2CC(=O)Nc3n[nH]cc32)ccc1OCc1ccccc1C(F)(F)F (stereo not drawn) [Example 1, 4-(3-methoxy-4-{[2-(trifluoromethyl)phenyl]methoxy}phenyl)-2H,4H,5H,6H, 7H-pyrazolo[3,4-b]pyridin-6-one]	≤ 316 nM	–	–	≥ 8	–
COc1cc(C2CC(=O)Nc3n[nH]cc32)ccc1OCc1ccc(C=O)cc1C(F)(F)F (stereo not drawn) [Example 159, 4-[(2-methoxy-4-{6-oxo-2H,4H,5H,6H,7H-pyrazolo[3,4-b]pyridin-4-yl}phenoxy)methyl]-3-(trifluoromethyl)benzaldehyde]	≤ 316 nM	–	–	–	10 to 100 nM
